In EP0417209B1, “COMPOSITIONS AND METHODS FOR ADMINISTERING […] ACTIVE COMPOUNDS” (priority 1988, dated 1990):
Where “and” joins values, the source holds several entries; their conditions need not be identical. Equal values may be shown once.

Tests used:
[1] = cited from earlier work
[2] = Plasma Piroxicam after gavage, combined administration with calcium threonate (Example 12); format: in vivo, Wistar derived albino rats; conditions: 0.6 mg/kg; for Plasma Piroxicam Concentration: listed as U.S.P. piroxicam; for concentration at 4 h: 4 hours after dosing
Experimental: Ten Wistar derived albino rats, male (375-411 gms), were acclimated for seven days prior to beginning the study. During this period the rats were fed Purina(R) Rodent Chow, watered ad lib and housed in self-flushing stainless-steel cages.
The rats were randomly assigned to two groups of five each and placed in Nalgene(R) cages. Group A received U.S.P. Piroxicam at 0.6 mg/kg, and Group AM received U.S.P. Piroxicam at 0.6 mg/kg plus calcium threonate at 15 mg/kg by gavage. Plasma samples were taken at 4, 6, 8 and 10 hours after dosing for plasma Piroxicam analysis.
Selective HPLC was used to analyze Piroxicam and the data analyzed via SAS. The ANOVA repeated measures procedure was used to determine differences in plasma Piroxicam concentrations between groups.
The average values (X) for each group and time are given. Figure 3 is the plasma profile of the data in Table 4.

[3] = Plasma Piroxicam after gavage, 3-day calcium threonate pretreatment (Example 13); format: in vivo, Wistar derived Albino rats; conditions: rat, po, 0.6 mg/kg, read-out: Piroxicam Plasma Concentration, average (X)
Experimental: Ten Wistar derived Albino rats, male (420-456 gms), were acclimated for seven days prior to beginning the study. During this period the rats were fed Purina(R) Rodent Chow, watered ad lib and housed in self-flushing stainless-steel cages.
The rats were randomly assigned to two groups of five each. Group A rats were gavaged daily for 3 days with 1.0 ml distilled water prior to beginning the study. Group AM rats were gavaged daily with 15 mg/kg/ml of calcium threonate for 3 days also. Threonate dosages were corrected for increases in body weights daily in insure the 15 mg/kg dose was maintained.
On day 4 the Group A rats were gavaged with Piroxicam at 0.6 mg/kg and group AM rats with 0.6 mg/kg Piroxicam and 15 mg/kg threonate. Plasma samples were taken at 4, 6, 8 and 10 hrs. post-dosing for plasma Piroxicam analysis.
Selective HPLC was used to analyze Piroxicam. The data was analyzed statistically by the SAS procedure. The ANOVA repeated measures procedure was used to determine differences in plasma Piroxicam concentration between groups.
The average (X) values for each group at each time period are given.

[4] = parameters: species or system Wistar derived albino rats; conditions: rat, in vivo
Experimental: Sixteen Wistar derived albino rats, eight male (242-333 gms) and eight female (295-345 gms) were acclimated for seven days prior to beginning this study. During this period the rats were fed Purina(R) Rodent Chow, watered ad lib and housed in self-flushing stainless-steel cages.
The rats were randomly assigned to two groups of eight each (4 males and 4 females) and placed in metabolism cages. […] Blood samples were taken at 1, 2, 3 and 4 hours after dosing for serum salicylate analysis. Urine was collected if produced at the same time periods for salicylate analysis also. In an effort to maximize urine output the rats were given additional water at 1, 2, 3 and 4 hours by gavage (3 ml).
Blood and urine were collected and analyzed according to the method of Natleson. [Natelson, S. Techniques of Clinical Chemistry, ed. 3. p. 649, Charles C. Thomas, Pub. (1971)]. The study was terminated after the 4 hour collection time.
All statistics were calculated via Statistical Analysis System (SAS Institute, Inc., Box 8000, Cary, NC, 27511) software. The ANOVA (repeated measures model) procedure was used to determine differences in salicylate concentrations between groups.
The average values (X) and standard deviation (SD) for each group and time are given. Figure 1 is a histogram presentation of the data in Table 2. The significance level (P) of the differences between the two groups at each sample time in salicylate concentration in serum are given next to each set of histograms. Figure 2 is the serum salicylate profile over time for both groups of rats, standard deviation bars are included. The initial uptake rate (gastrointestinal) is calculated from the linearized curve in the first hour after dosing. Urine salicylate data is not presented in detail but will be discussed below. The groups are not broken down into male and female because there is no significant difference in the serum salicylate related to the sex of the animal.

[5] = parameters: species or system men; conditions: in vivo
Text: The following example describes clinical tests comparing the product of Example 1 (test material) with L-ascorbic acid and citric acid (placebo), measuring intra-cellular and serum ascorbate levels, urinary ascorbate output and urinary oxalate excretion at various times after ingestion of standard doses of the test, L-ascorbic acid and placebo.
Twelve men, ages 27 to 45, were studied.
All were instructed that they should be on a low Vitamin C diet for one week prior to the study (no citrus products and no large amounts of green leafy vegetables).
Following overnight fast, blood and 24-hour urine samples were taken. White blood cell and 24-hour urinary ascorbate and oxalate levels were determined and correlated with serum ascorbate levels.
The 12 men were divided into three groups, and were given the following supplements: • (a) Test Group: 4000 MG* per day of the product Ex. 1. • (b) Ascorbate Group: 3000 MG of L-ascorbic per day. • (c) Citric Acid Group: 3000 MG of citric acid per day. *4000 MG is equivalent in ascorbate (iodine test) to 3000MG L-ascorbic acid.
All 12 continued on a low Vitamin C diet. Blood samples were taken at 0, 4, 8 and 24 hours after morning ingestion of the designated supplements. Urinary 24-hour ascorbate and oxalate levels were determined.
After a wash-out period (varying from two days to several days, due to job situation of participants), the groups were switched to another supplement, as follows: • (a) Test group to citrate group. • (b) Citrate group to ascorbate group. • (c) Ascorbate group to test group.
Supplements were taken at the same level (4000 MG of Ex. 1 product, 3000 MG of L-ascorbic and 3000 MG of citric acid) by all three groups. Blood samples were again drawn at 0, 4, 8 and 24 hours from time of ingestion. A 24-hour urine was also collected by all 12 participants at the end of the period. Again, all specimens were analyzed for their respective concentration of ascorbate and oxalate levels.
The analytical procedures utilized are described in: Clinical Chemistry, Principles and Techniques, edited by Richard J. Henry, Donald D. Cannon and James W. Windelman, Harper and Row, 1974 p. 1393-1398.
Standard Method of Clinical Chemistry, J. S. Roe, edited by Seligson D. New York, Academic Press, 1961, Vo. 3, p. 35.
In the quantitation of 24-hour urine oxalate, an aliquot of urine is shaken with an adsorbent which selectively binds the oxalate. The extracted urine is discarded and the oxalate is eluted from the adsorbent with dilute alkali.
Oxalate is oxidized to hydrogen peroxide and carbon dioxide by oxalate oxidase. The hydrogen peroxide reacts with 3-methyl-2-benzothiozolinone hydrazone (MBTH) and 3 (dimethylamino) benzoic acid (DMAB) in the presence of peroxidase to yield an indamine dye with a maximum absorbance at 590 NM.

movement disorders = test: Supplementation of dogs with chronic movement disorders; clinical evaluation and owner's report; format: in vivo; conditions: given orally
Experimental: One hundred-eighty dogs of varying breed and age were fed 3 x 30 mgs/kg of the product of Example 1. All of these dogs suffered movement disorders.
The effect was measured seven days after supplementation and then again after six weeks. Last evaluation was after more than six months.
A number of different ailments were treated, both acute and chronic. In acute illness where symptoms are rapidly changing, one finds it hard to distinguish between the effect of supplementation and other factors.
Animals with the following chronic ailments were chosen: joint-injuries with secondary permanent changes, arthrosis, spondylosis, hip dysplasia, older dico-prolapse with secondary permanent changes, muscle-atrophy as a result of funtio laesa and senile wear-changes in support and motion-systems.
One hundred dogs qualify under the above criteria. Age or breed was not taken into consideration in this report.

Experimental for 3T3 mouse fibroblasts: A control group was incubated with Ringer's as a control.
(5 ul of 14C-L ascorbic acid was added, 10.0 mCi/mmol, 0.05 mCi/ml).
The flasks were then washed with 4 ml HBSS(-) and then were trypsinized with 0.1 ml trypsin-EDTA for 5 minutes. The cells were resuspended in 4 ml ice cold HBSS(-) to stop the enzymatic reaction. The cells were centrifuged for 10 minutes at 1000 G. The cells were then washed and resuspended in 4 ml HBSS(-). The cells were again centrifuged (10 min, 1000G), resuspended in 1.0 ml distilled H2O and sonicated for 90 seconds.
0.5 ml of each sample was used for counting ^14C and 0.5 ml was used for protein analysis using the Bradford method.

Question: With `Cc1ccc(Cl)c(Nc2ccccc2C(=O)O)c1Cl` [Meclofenamic Acid] as the compound, how does the pKa [1] read?
Answer: The pKa was 4.0.

Question: Which “uptake of 14C into the cells, average” value (3T3 mouse fibroblasts; average of three flasks) does the source give for `O=C(O)[C@H](O)[C@@H](O)CO` [Calcium-L-Threonate, calcium L-threonate] here?
Answer: The value was 1.19 DPM/ug.

Question: What about the “Uptake Ratio, average” value (3T3 mouse fibroblasts; average of three flasks, relative to Ringer's control) of the same compound?
Answer: The value was 1.86.

Question: What about the “uptake of 14C into the cells” value (3T3 mouse fibroblasts; single flask, 100 mg% calcium L-threonate 1 hour at 37°C, then 1.25 mg% ascorbic acid 20 minutes) of the same compound?
Answer: Its value is 0.835 DPM/ug and 1.341 DPM/ug and 1.384 DPM/ug.

Question: And the “Uptake Ratio” value (3T3 mouse fibroblasts; single flask, relative to average Ringer's control)?
Answer: The value was 1.30 and 2.09 and 2.16.

Question: For `CN1C(C(=O)Nc2ccccn2)=C(O)c2ccccc2S1(=O)=O` [Prioxicam], which “Plasma Piroxicam Concentration” value ([2]; 8 hours after dosing, individual rat, 480 min) is on record?
Answer: Its value is 1.9 µg/mL and 1.8 µg/mL and 1.6 µg/mL.

Question: And the “Plasma Piroxicam Concentration” value ([2]; 10 hours after dosing, individual rat, 600 min)?
Answer: The value was 1.4 µg/mL and 1.7 µg/mL and 2.0 µg/mL.

Question: What about the concentration at 4 h ([2]; rat, plasma, po, group average, read-out: Plasma Piroxicam Concentration, average (X)) of the same compound?
Answer: The concentration at 4 h was 1800 ng/mL.

Question: What about the concentration at 4 h ([2]; rat, plasma, po, piroxicam 0.6 mg/kg (AM: plus threonate 15 mg/kg), individual rat, read-out: Plasma Piroxicam Concentration) of the same compound?
Answer: Its concentration at 4 h is 2200 ng/mL.

Question: What about the concentration at 6 h ([2]; rat, plasma, po, 6 hours after dosing, group average, read-out: Plasma Piroxicam Concentration, average (X)) of the same compound?
Answer: The concentration at 6 h was 1700 ng/mL.

Question: What about the concentration at 8 h ([2]; rat, plasma, po, 8 hours after dosing, group average, read-out: Plasma Piroxicam Concentration, average (X)) of the same compound?
Answer: The concentration at 8 h was 1800 ng/mL.

Question: And the concentration at 8 h ([2]; rat, plasma, po, 8 hours after dosing, individual rat, read-out: Plasma Piroxicam Concentration)?
Answer: The concentration at 8 h was 1700 ng/mL.

Question: And the concentration at 10 h ([2]; rat, plasma, po, 10 hours after dosing, group average, read-out: Plasma Piroxicam Concentration, average (X))?
Answer: The concentration at 10 h was 1800 ng/mL.

Question: What about the concentration at 10 h ([2]; rat, plasma, po, 10 hours after dosing, individual rat, read-out: Plasma Piroxicam Concentration) of the same compound?
Answer: The concentration at 10 h was 2000 ng/mL.

Question: What about the concentration at 4 h ([3]; 4 hrs post-dosing on day 4, group average) of the same compound?
Answer: Its concentration at 4 h is 1300 ng/mL.

Question: What about the concentration at 6 h ([3]; 6 hrs post-dosing on day 4, group average) of the same compound?
Answer: The concentration at 6 h was 1300 ng/mL.

Question: What about the concentration at 8 h ([3]; 8 hrs post-dosing on day 4, group average) of the same compound?
Answer: The concentration at 8 h was 1100 ng/mL.

Question: And the concentration at 10 h ([3]; 10 hrs post-dosing on day 4, group average)?
Answer: The concentration at 10 h was 900 ng/mL.

Question: For `C=CCOc1ccc(CC(=O)O)cc1Cl` [Alclofenac], which pKa [1] is on record?
Answer: The pKa was 4.6.

Question: Which pKa [1] does the source give for `CO[C@@]1(NC(=O)Cc2cccs2)C(=O)N2C(C(=O)O)=C(COC(N)=O)CS[C@@H]21` [Cefoxitin] here?
Answer: The pKa was 2.2.

Question: For `CC(=O)Oc1ccccc1C(=O)O` [Aspirin], which elimination rate [4] is on record?
Answer: The elimination rate was 1.30 mg/h.

Question: And the uptake rate [4]?
Answer: The uptake rate was 4.40 mg/h.

Question: What about the Urine salicylate ([4]; 60 min) of the same compound?
Answer: Its Urine salicylate is “approximately 9.1 mg%”.

Question: What does the source list for `O=C1O[C@H]([C@@H](O)CO)C(O)=C1O` [L-ascorbic, L-ascorbic acid]?
Answer: 7th Day Urine Ascorbate [5]: 459 MG/24 Hour; 7th Day Urine Ascorbate % Change [5]: 4583%; 24 Hour Urine Ascorbate [5]: 314.5 MG/24 Hour; 24 Hour Urine Ascorbate % Change [5]: 2760.6%; 24th Hour Urine Oxalate [5]: 63.8 MG/24 Hour; 24th Hour Urine Oxalate % Change [5]: 162%

Question: Which “symptomatic relief of chronic deforming changes in the joint and skeleton system” value (movement disorders) does the source give for `O=C1O[C@H]([C@@H](O)CO)C(O)=C1O` [calcium-ascorbate] here?
Answer: The value was “Neither calcium-ascorbate alone nor L-ascorbic acid alone give such relief”.

Question: With `CC1=C(CC(=O)O)c2cc(F)ccc2/C1=C\c1ccc([S+](C)[O-])cc1` (stereo not shown) [Sulindac] as the compound, how does the pKa [1] read?
Answer: Its pKa is 4.7.
